The subject of data set [1] is Mycobacterium tuberculosis H37Rv. The data set is described as follows: Minimum inhibitory concentration (MIC90) against Mycobacterium tuberculosis H37Rv, Middlebrook 7H9, 96-well plate, 15 days. The conditions noted are these: Mycobacterium tuberculosis, H37RV, 360 h. The data set is classed as cell-based.
A short description of data set [2]: Pharmacokinetics and lung tissue distribution in mice, LC-MS/MS. The conditions noted are these: mouse, in vivo, po, 100 mg/kg. In kind it is in vivo, Balb/C mice. On the procedure: In this example, the pharmacokinetic parameters and lung tissue distribution of the deuterated compounds YF027, YF032, YF036, and YF044 and their respective non-deuterated control compounds (A, B, C, and D) were determined.
Balb/C mice, male (1 group at each time point, 5 mice per group, 55 mice per compound in total), 7-8 weeks old, weighing about 20 g, animal source: Beijing Vital River Laboratory Animal Technology Co., Ltd.
The test compound was completely dissolved in an 8% Tween-80 aqueous solution. A 10 mg/mL drug liquid was prepared for intraperitoneal injection and intragastric administration.
Single intragastric administration was performed at a dose of 100 mg/kg. The pharmacokinetic differences between the deuterated compounds YF027, YF032, YF036, and YF044 and their respective non-deuterated controls A, B, C, and D were compared.
The mice were fasted overnight before administration. In the experiment, orbital venous blood and lung tissue were collected from the mice at time points of no administration group (0 min) and 10 min, 20 min, 30 min, 1 h, 2 h, 3 h, 4 h, 6 h, 8 h, and 24 h after intragastric administration, and about 300 µL of blood was collected from the eyeballs each time.
The collected blood sample was placed in an anticoagulation tube, and quickly inverted and mixed well. The tube was temporarily placed on ice after being labeled. The blood samples temporarily stored on ice were subjected to low-temperature centrifugation within 1 h at 4 °C at 3000 rpm for 10 min. The supernatant obtained after centrifugation was plasma. The plasma was transferred to a new centrifuge tube and stored in a refrigerator at -80 °C for subsequent detection.
The lung tissues of the mice were collected, washed with pre-cooled normal saline to remove the residual blood and tissue fluid, dried with absorbent paper, weighed with a balance, and placed into a centrifuge tube. The tubes were marked and stored in a refrigerator at -80 °C.
The concentrations of the compounds of the present disclosure and control compounds in plasma and lung tissue were determined using LC-MS/MS. Table 2. Pharmacokinetic parameters of compound YF027 of the present disclosure and control compound A

For another data set, the system named is CYP2A6. In kind it is in vitro ADME, mouse. The method, then:
(§1) This example was to detect the CYP450 metabolic enzyme phenotype of the deuterated compound YF027 and its non-deuterated control compound A (using a CYP450 enzyme metabolic phenotype research kit (recombinant enzymatic method/7 enzymes)-mouse liver microsome test).
(§2) • a. The test compound was prepared into a 40 mM stock solution for later use. 2.5 µL of the stock solution was taken and diluted with DMSO to a test compound concentration of 200 µM, and the compound at this concentration was used in subsequent tests. • b. The working solution concentration of the mixed positive substrates, phenacetin and testosterone, was 200 µM.
(§3) 1) The components of the kit were thawed in an ice bath. The mixture was well mixed by vortexing and then placed on ice for later use. 2) In addition to the microsomes, the other components of the incubation systems were mixed according to the ratios and well mixed by pipetting, and the ratios of the incubation systems are shown below; Table 6. Incubation system of positive control group
(§4) The inhibitors were quinidine, naphthoflavone, pilocarpine, sodium diethyldithiocarbamate, ticlopidine, ketoconazole, and sulfaphenazole, which corresponded to the inhibition of CYP450 enzymes CYP2D6, CYP1A2, CYP2A6, CYP2E1, CYP2C19, CYP3A4, and CYP2C9, respectively. Table 9. Incubation system of negative control group
(§5) 3) Except for the negative control group (Table 9), 3.125 µL of liver microsomes was added to each of the above incubation systems to prepare 125 µL of reaction solution. The reaction solutions were well mixed by vortexing, and then placed in a water bath at 37 °C to initiate the reaction. A timer was set. 4) At time points of 0 min and 90 min, 50 µL of reaction solution was taken, and a pre-cooled acetonitrile solution was added to the reaction solution. The mixture was quickly well mixed by vortexing to stop the reaction. 5) Mass spectrometry detection pretreatment of reaction solution
(§6) The reaction solution was cryopreserved in a refrigerator at -80 °C overnight and then centrifuged for mass spectrometry detection.
(§7) The detection values after 90 min of incubation were processed as ratios relative to the 0-min detection values to determine the metabolic rate of the compounds in different experimental groups after 90 min. The metabolic inhibition rate was then calculated using the formula: Inhibition rate (%) = (1 - metabolic rate of sample with inhibitor/metabolic rate of sample without inhibitor) × 100%, as shown in Table 10 below. […] The metabolic inhibition rate reflects the effect on the metabolic elimination of the drug after adding different selective inhibitors. Therefore, when the metabolic inhibition rate of a specific enzyme is ≥ 25%, the contribution of the specific enzyme to the clearance of the drug under study can be inferred to be ≥ 25% based on the results of the in vitro metabolism study.

The test system of the next data set is CYP2C19. In kind it is in vitro ADME, mouse. On the procedure: as §1, §2, §3, §4, §5, §6, §7
In a further data set the test system is CYP2C9. The data set is classed as in vitro ADME, mouse. On the procedure: as §1, §2, §3, §4, §5, §6, §7
The next data set deals with CYP2D6. In kind it is in vitro ADME, mouse. On the procedure:
as §1, §2, §3, §4, §5, §6, §7

Another data set concerns CYP3A4. The data set is classed as in vitro ADME, mouse. On the procedure: as §1, §2, §3, §4, §5, §6, §7
Another data set has as its target T1, CYP1A2 (Mus musculus, UniProt P00186).
T1 construct: from tissue; host or cells: mouse liver microsomes (component of a kit)
T1 sequence (P00186 1-513): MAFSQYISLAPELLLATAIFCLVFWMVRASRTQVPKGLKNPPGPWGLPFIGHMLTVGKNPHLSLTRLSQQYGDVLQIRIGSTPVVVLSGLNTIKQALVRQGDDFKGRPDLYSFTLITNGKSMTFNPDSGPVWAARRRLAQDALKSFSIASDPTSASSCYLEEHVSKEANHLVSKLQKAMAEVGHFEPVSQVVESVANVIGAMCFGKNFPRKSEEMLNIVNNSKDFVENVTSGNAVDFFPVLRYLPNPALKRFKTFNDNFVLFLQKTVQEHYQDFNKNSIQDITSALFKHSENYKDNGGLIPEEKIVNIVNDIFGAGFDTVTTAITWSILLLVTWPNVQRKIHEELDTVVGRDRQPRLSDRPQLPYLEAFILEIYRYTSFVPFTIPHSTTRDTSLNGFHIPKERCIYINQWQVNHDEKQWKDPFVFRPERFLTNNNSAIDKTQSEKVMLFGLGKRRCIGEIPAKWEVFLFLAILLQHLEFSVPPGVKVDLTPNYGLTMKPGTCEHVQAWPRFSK
In kind it is in vitro ADME. The method, then: as §1, §2, §3, §4, §5, §6
(§8) The detection values after 90 min of incubation were processed as ratios relative to the 0-min detection values to determine the metabolic rate of the compounds in different experimental groups after 90 min. The metabolic inhibition rate was then calculated using the formula: Inhibition rate (%) = (1 - metabolic rate of sample with inhibitor/metabolic rate of sample without inhibitor) × 100%, as shown in Table 10 below. […] The metabolic inhibition rate reflects the effect on the metabolic elimination of the drug after adding different selective inhibitors. […]

Another data set concerns the target T2, CYP2E1 (Mus musculus, UniProt Q05421).
T2 construct: from tissue; host or cells: mouse liver microsomes (component of a kit)
In kind it is in vitro ADME. On the procedure: as §1, §2, §3, §4, §5, §6, §8

Data set [3] concerns Mycobacterium tuberculosis H37Rv. In kind it is in vivo, BALB/c mice.
Data set [4] in a line: 28-day repeat-dose toxicity study in mice. The data set is classed as in vivo, Balb/c mice. To be noted: 100 mg/kg intragastric, once daily, 6 days a week, 4 weeks, Balb/c mice. The method, then: Administration groups of the compound YF027 of the present disclosure and its non-deuterated control compound A were set for a 28-day repeat-dose toxicity study in mice. Each compound was administered to 10 Balb/c mice (5 females and 5 males, purchased from Beijing Vital River Laboratory Animal Technology Co., Ltd.) by intragastric administration. The administration was performed once daily for 6 consecutive days a week for 4 consecutive weeks, and an 8% Tween 80 vehicle control group (10 Balb/c mice, 5 females and 5 males) was set for administration at the same volume using the same method. Table 12. Administration information of repeat-dose toxicity assay
During the administration period, the mice were observed every day. The body weight, appearance signs, behavior and activity, fecal traits, and local reactions at the site of administration were recorded. After the end of the administration, the gross anatomy was performed on the mice in the administration group and the control group. The serum of the mice was collected, and the heart, liver, spleen, kidney, lung, and brain tissues and organs were weighed to calculate organ coefficients. The tissue samples of all groups were subjected to histopathological detection, and the serum samples were analyzed for biochemical parameters of liver and kidney functions. The serum biochemical parameters included: alanine aminotransferase (ALT), aspartate aminotransferase (AST), alkaline phosphatase (ALP), urea (UREA), creatinine (CREA), total protein (TP), and albumin (ALB). Statistical analysis was performed to evaluate potential toxic effects of the compounds.

This note sets out measurements from patent EP4775586A1, “DEUTERATED TETRACYCLIC DERIVATIVE AND USE THEREOF” (priority 2023, dated 2025).

Where “and” joins values, the source holds several entries; their conditions need not be identical. Equal values may be shown once. Some results are limits rather than exact numbers.

T2 sequence (Q05421 whole entry): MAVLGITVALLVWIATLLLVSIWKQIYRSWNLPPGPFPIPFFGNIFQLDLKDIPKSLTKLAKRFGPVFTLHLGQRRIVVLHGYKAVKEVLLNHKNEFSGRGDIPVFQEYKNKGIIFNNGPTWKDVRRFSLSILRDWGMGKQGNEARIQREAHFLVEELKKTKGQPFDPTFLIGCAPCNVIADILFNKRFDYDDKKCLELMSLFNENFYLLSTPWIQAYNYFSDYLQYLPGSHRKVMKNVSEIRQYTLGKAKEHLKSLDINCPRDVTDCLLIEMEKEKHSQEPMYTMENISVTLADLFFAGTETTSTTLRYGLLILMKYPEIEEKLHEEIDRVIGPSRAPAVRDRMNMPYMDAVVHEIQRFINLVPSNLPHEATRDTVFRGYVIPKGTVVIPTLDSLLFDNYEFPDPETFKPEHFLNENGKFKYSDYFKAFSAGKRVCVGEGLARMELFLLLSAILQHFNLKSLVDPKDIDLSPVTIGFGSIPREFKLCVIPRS

Usually MIC90 stands for the lowest concentration that inhibits either 90% of growth or 90% of the strains tested, depending on the study. A lower MIC90 goes with higher susceptibility. As a reminder, the AUC(0-inf) is the area under the concentration-time curve extrapolated to infinity. Read a low AUC(0-inf) as less exposure. By AUC(0-t) is commonly meant exposure summed from dosing to a finite time, without extrapolation to infinity. Lower therefore signals less exposure. For orientation: Cmax means the peak of the concentration-time curve. For orientation: Tmax means the time at which the peak concentration occurs. Broadly, the half-life is the time needed for the level to fall by half in the phase considered. Read a high half-life as slow decline. In turn, `CC(C)(C)c1cc(O)c(CN2CCCCC2)c2c1oc1c3ccc(O)cc3oc(=O)c12` [Compound A, reference compound] showed an MIC90 in data set [1] of at most 3.9 ng/mL. The AUC(0-inf) in data set [2] was 121 ng·h/mL. This molecule also showed an exposure AUC(0-t) at 24 h in data set [2] of 117 ng·h/mL. Also, the Cmax in [2] was 120 ng/mL and 948 ng/g. Besides, the Tmax in data set [2] was 0.167 h. This molecule had a half-life in [2] of 4.35 h. Moreover, the Inhibition rate in the data set on CYP2A6 is on record as 4.2%; in the data set with CYP2C19, -19.3%; with CYP2C9 it was -2.8%; in the data set with CYP2D6, -8.7%; in the data set on CYP3A4, 76.9%; on CYP1A2, -11.7%. In addition, the Inhibition rate at CYP2E1 is -26.5%. The “pulmonary Mycobacterium tuberculosis clearance rate” value in data set [3] (100 mg/kg intragastrically, 4 weeks, mice) worked out at 87.7%. In data set [3] (mouse, in vivo), the “reduction of pulmonary bacterial load” value was found to be 0.91 log. Also, the “mortality during the administration period” value in data set [4] is “no mice died”.
